Measurements published in ChEMBL document CHEMBL1129801, “3-Benzyloxy-2-phenylpiperidine NK1 antagonists: the influence of alpha methyl substitution” (Bioorg Med Chem Lett, 1997).
Values belong to the compound of their own block, whether it stands above or below them.

Tests used:
[1] = target: Substance-P receptor (Rattus norvegicus, UniProt P14600); test: […]; type: functional, microsomes, Liver, Microsome
[2] = Compound was tested in vivo for the ability to antagonise extravasation induced by the administration.; type: functional; details: read-out: ID50 (the source's name)
[3] = Compound was tested in vivo for the ability to antagonise extravasation induced by the administration; type: functional
[4] = (§1) Compound was tested in vivo for the ability to antagonise extravasation induced by the administration at 1 mg/kg po.; type: functional
[5] = as §1; type: functional; remark: listed apart in the source

Chain of Substance-P receptor (P14600 whole entry): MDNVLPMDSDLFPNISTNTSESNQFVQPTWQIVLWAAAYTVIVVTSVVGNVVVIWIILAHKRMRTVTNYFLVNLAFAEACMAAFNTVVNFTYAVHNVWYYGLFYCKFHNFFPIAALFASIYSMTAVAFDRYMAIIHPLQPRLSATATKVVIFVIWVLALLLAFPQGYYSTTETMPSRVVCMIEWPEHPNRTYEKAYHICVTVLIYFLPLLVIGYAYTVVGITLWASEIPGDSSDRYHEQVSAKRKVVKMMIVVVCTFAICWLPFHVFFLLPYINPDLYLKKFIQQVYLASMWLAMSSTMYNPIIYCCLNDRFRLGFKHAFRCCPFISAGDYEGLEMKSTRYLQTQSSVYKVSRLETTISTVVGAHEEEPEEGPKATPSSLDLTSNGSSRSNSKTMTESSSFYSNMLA

Compound: c1ccc(CO[C@H]2CCCN[C@H]2c2ccccc2)cc1
IC50 [1]: 160 nM

Compound: C[C@@H](O[C@H]1CCCN[C@H]1c1ccccc1)c1ccccc1
IC50 [1]: 86 nM

Compound: C[C@H](O[C@H]1CCCN[C@H]1c1ccccc1)c1ccccc1
IC50 [1]: > 10000 nM

Compound: C[C@H](O[C@H]1CCCN[C@H]1c1ccccc1)c1cc(C(F)(F)F)cc(C(F)(F)F)c1
IC50 [1]: 87 nM

Compound: C[C@@H](O[C@H]1CCCN(Cc2n[nH]c(=O)[nH]2)[C@H]1c1ccccc1)c1ccccc1
IC50 [1]: 5.9 nM

Compound: C[C@H](O[C@H]1CCCN[C@H]1c1ccccc1)c1cc(Cl)cc(Cl)c1
IC50 [1]: 85 nM

Compound: C[C@H](O[C@H]1CCCN(Cc2n[nH]c(O)n2)[C@H]1c1ccccc1)c1cc(Cl)cc(Cl)c1
IC50 [1]: 25 nM

Now those with a lower IC50 [1], led by results:

IC50 [1]: 0.91 nM
Compound: C[C@@H](O[C@H]1CCCN[C@H]1c1ccccc1)c1cc(Cl)cc(Cl)c1

IC50 [1]: 0.8 nM
Compound: FC(F)(F)c1cc(CO[C@H]2CCCN[C@H]2c2ccccc2)cc(C(F)(F)F)c1

IC50 [1]: 0.18 nM
Compound: FC(F)(F)c1cc(CO[C@H]2CCCN(Cc3nc[nH]n3)[C@H]2c2ccccc2)cc(C(F)(F)F)c1
ED50 [2]: 0.034 mg/kg
Inhibition [3]: 0%
inhibition in vivo at 1 mg/kg [4]: 55%

IC50 [1]: 0.16 nM
Compound: C[C@@H](O[C@H]1CCCN(Cc2nc[nH]n2)[C@H]1c1ccccc1)c1cc(C(F)(F)F)cc(C(F)(F)F)c1
ED50 [2]: 0.06 mg/kg
Inhibition [3]: 12%
inhibition in vivo at 1 mg/kg [4]: 78%

IC50 [1]: 0.16 nM
Compound: C[C@@H](O[C@H]1CCCN(Cc2n[nH]c(O)n2)[C@H]1c1ccccc1)c1cc(C(F)(F)F)cc(C(F)(F)F)c1
ED50 [2]: 0.026 mg/kg
inhibition in vivo at 1 mg/kg [5]: 66%
inhibition in vivo at 1 mg/kg [4]: 97%

IC50 [1]: 0.15 nM
Compound: C[C@@H](O[C@H]1CCCN[C@H]1c1ccccc1)c1cc(C(F)(F)F)cc(C(F)(F)F)c1

IC50 [1]: 0.09 nM
Compound: C[C@@H](O[C@H]1CCCN(Cc2n[nH]c(O)n2)[C@H]1c1ccccc1)c1cc(Cl)cc(Cl)c1
ED50 [2]: > 0.1 mg/kg
